# Assay results: patent US20230285524A1, “USE OF ELAFIN FOR DISORDERS ASSOCIATED WITH ELASTASE INDEPENDENT INCREASE IN TROPONIN” (tiakis Biotech AG, priority 2014, published 2023)
# What was measured:
# [1] = tested on: troponin I release from cardiomyocytes; assay: Plasma cTroponin I after coronary artery bypass grafting surgery, randomized double-blinded trial, Elafin versus placebo; format: in vivo, human; details: 200 mg i.v. infusion at start of surgery
# Procedure: Patients undergoing coronary artery bypass grafting surgery were treated with either intravenous infusion of a 200 mg dose of Elafin in 250 mL of normal saline (Elafin group, n=44) or 250 mL of normal saline (placebo group, n=42) in a randomized, double-blinded clinical trial. The intravenous infusion was started at first skin incision and completed at least 20 min before cardiopulmonary bypass commenced.
# Blood samples were taken at baseline (time 0, skin incision) and at 2, 6, 24 and 48 h post-operatively. Plasma cTroponin I concentrations were quantified with the Abbott Architect highly-sensitive assay (Abbott Laboratories, ILL) according to the manufacturer's instructions. This assay has a sensitivity of 0.01 ng/mL or less, with a 10% coefficient of variation of 0.032 ng/mL and a 99th percentile (male and female) of 0.012 ng/mL. cTroponin I is a regulatory protein of cardiomyocyte contraction and its presence in blood plasma is a specific indication of cardiomyocyte injury.
# [2] = tested on: IL-6; assay: Serum interleukin 6 after on-pump coronary artery bypass grafting surgery, Elafin versus placebo; format: in vivo, human; details: 200 mg i.v. infusion
# Procedure: (§1) 44 Patients undergoing on-pump coronary artery bypass grafting surgery received a 200 mg dose of Elafin in 250 mL of normal saline by intravenous infusion that was started at first skin incision and completed at least 20 min before cardiopulmonary bypass commenced. A second group of 42 patients undergoing the same surgical procedure received 250 ml normal saline (placebo) per infusion instead.
# Blood was drawn from patients and from the blood samples serum was prepared. Serum levels of interleukin 6 were determined by the use of a Human Interleukin 6 Immunoassay (R&D Systems Europe, Abingdon, UK) according to the instructions of the manufacturer. This assay employs the quantitative sandwich enzyme immunoassay technique. A monoclonal antibody specific for IL-6 has been pre-coated onto a microplate. Interleukin 6 standards and samples were pipetted into wells and any IL-6 present was bound by an immobilized antibody. After washing away any unbound substances, an enzyme-linked polyclonal antibody specific for IL-6 was added to the wells. Following a wash to remove any unbound antibody-enzyme reagent, a substrate solution was added to the wells. After an incubation period, an amplifier solution was added to the wells and color developed in proportion to the amount of IL-6 bound in the initial step. The color development was stopped and the intensity of the color is measured.
# [3] = tested on: C-reactive protein (CRP); assay: Serum C-reactive protein after on-pump coronary artery bypass grafting surgery, Elafin versus placebo; format: in vivo, human; details: 200 mg i.v. infusion, time point 6 h
# Procedure: as §1
# Blood was drawn from patients and from the blood samples serum was prepared. Serum levels of the inflammatory marker C-reactive protein (CRP) at time point 6 h were measured (FIG. 4).
# [4] = rats; cited from earlier work
# [5] = tested on: U937; details: U937 cells, Butler et al., 2006, cited from earlier work
# [6] = tested on: 20 S proteasome; details: Butler et al., 2006; cited from earlier work
substance,measurement,setting,value
"Elafin: recombinant human protein of 57 amino acids (SEQ ID NO:1), reversible tight binding inhibitor of elastase and proteinase 3 (AQEPVKGPVSTKPGSCPIILIRCAMLNPPNRCLKDTDCPGIKKCCEGSCGMACFVPQ; listed as Homo sapiens)",reduction of troponin I release 6 hours after commencement of surgery,[1]; 6 h,significant reduction
same,"overall reduction of the Troponin I release (area under the curve) over 48 hours, in words",[1]; AUC 0-48 h,overall reduction
same,overall reduction of the troponin I release over 48 hours (area under the curve),[1]; AUC 0-48 h,20-40%
same,effect on serum level of IL-6 (postoperative rise),[2],no effect
same,effect on serum level of IL-6 (postoperative rise),[2]; listed as elafin,not affected
same,effect on serum level of CRP (postoperative rise),[3],no effect
same,effect on serum level of CRP (postoperative rise),[3]; listed as elafin,not affected
same,side effects after intravenous administration,[4],without any side effects
same,LPS-induced activation of the transcription factors AP-1 and NF-κB,[5],inhibited
same,production of macrophage chemokine MCP-1 (CCL2),[5]; LPS,inhibition
same,inhibition of peptidase activities associated with the 20 S proteasome,[6],no inhibition
